# Assay results reported in patent US10807944B2, “HDAC inhibitor compounds and methods of treatment” (priority 2014, dated 2020).
# pIC50: −log10 of the molar value.
# Tests used:
# MDA-MB-231 cells = assay: Cancer cell viability (CellTiter-Glo); format: cell-based; conditions: Homo sapiens, MDA-MB-231, read-out: Cancer cell (MDA-MB-231) killing IC50
# HDAC1 = HDAC1 (Homo sapiens (Human), UniProt Q13547); assay: In vitro HDAC1 inhibition of HTS hits (HDAC I/II-Glo reagents); format: biochemical; conditions: HTS follow-up
# HDAC1, sequence (Q13547 whole entry): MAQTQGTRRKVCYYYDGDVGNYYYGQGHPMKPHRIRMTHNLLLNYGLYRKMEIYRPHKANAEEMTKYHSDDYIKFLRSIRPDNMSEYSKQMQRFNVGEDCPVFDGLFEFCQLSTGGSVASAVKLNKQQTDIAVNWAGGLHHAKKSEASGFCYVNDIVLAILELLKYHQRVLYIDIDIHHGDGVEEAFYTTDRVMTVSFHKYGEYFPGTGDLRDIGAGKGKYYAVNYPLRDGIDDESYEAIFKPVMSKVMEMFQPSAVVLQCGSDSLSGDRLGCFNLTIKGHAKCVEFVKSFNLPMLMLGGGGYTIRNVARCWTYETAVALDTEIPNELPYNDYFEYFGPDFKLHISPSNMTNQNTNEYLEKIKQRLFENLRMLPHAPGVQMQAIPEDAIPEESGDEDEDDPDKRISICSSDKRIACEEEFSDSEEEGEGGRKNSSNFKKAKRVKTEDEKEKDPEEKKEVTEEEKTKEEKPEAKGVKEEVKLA
smiles,measurement,setting,value
"CCCCNNC(=O)c1ccc(Br)cc1 [UF010, 4-bromo-N′-butylbenzohydrazide]",pIC50,MDA-MB-231 cells,4.51
same,potency of HDAC1 inhibition in vitro,HDAC1,< 10 µM
